# Measured values: US20060135618A1, “Medicine comprising a thiourea for use as depigmenting agent or anti-mutagenic and anti-carcinogenic agent” (priority 2002, published 2006)
# What was measured:
# [1] = test system: melanin-producing human melanocyte-keratinocyte co-cultures; experiment: Depigmenting effect: melanin extraction from pigmented epidermis co-cultures; type: cell-based; settings: for Inhibition % of the melanin in the co-cultures: 2.8 mM in culture medium for 21 days; for inhibition at 2800 µM: read-out: Inhibition % of the melanin in the co-cultures
# Description: The culture media are also supplied by this manufacturer.
# Extraction is carried out on a pool of two culture wells, which are homogenized in 0.45 ml of sodium dodecyl sulphate (SDS) at 1% containing 0.05 mM of EDTA and 10 mM of Tris HCl (amino-2-(hydroxymethyl)-2-propanediol-1,3), pH 6.8. Add 20 μl of proteinase K at 5 mg/ml to each homogenate. Digest over night at 45° C. Then add a further 20 μl of proteinase K and continue incubation for 4 hours. Then add 50 μl of 0.5 M solution of sodium carbonate and 10 μl of a 30% solution of hydrogen peroxide. Maintain the specimens at 80° C. for 30 min and then cool them. Extract the specimens with 100 μl of a chloroform-methanol mixture (2:1, v/v). After centrifugation at 10,000 g for 10 min, measure the optical density of the supernatant at 405 nm. The products are compared in Table 1 below (the results are expressed as percentage inhibition of the melanin in the co-cultures): […]
# [2] = test system: Salmonella typhimurium TA 104 recN2-4; experiment: Vitotox test, antimutagenic effect against MMS (methylmethanesulphonate); type: cell-based
# Description: After incubation of the bacteria with a genotoxic product, the recN promoter is derepressed and the lux operon is expressed: emission of light, the said emission being proportional to the genotoxicity of the product. Some products act directly on the production of light or increase the metabolism of the bacteria, creating false positives. […] The same strain is used as cytotoxicity control (false negatives).
# • In order to test the antimutagenic effect against genotoxic molecules, a genotoxic molecule, methylmethanesulphonate (MMS), is used, which is compared against the genotoxicity of a mixture of reference mutagenic molecules, 4-nitroquinoline oxide and benzo(a)pyrene. MMS is placed alone or mixed with bis MsoBT at increasing concentrations and the emissions of light are compared. […] The test product is used with or without metabolic activation (fraction S9: microsomal homogenate containing cytochrome P450: […] final). • The kinetics of emission of light, as a function of the genotoxicity and of the cytotoxicity of the product, is measured for 3 hours (measurements every 5 minutes) with a Fluoroskan Ascent FL (bermnoLabsystems). • The products are supplied by the companies Sigma-Aldrich. […]
# [3] = test system: Salmonella typhimurium TA 104 recN2-4; experiment: Vitotox test, antimutagenic effect against UVB; type: cell-based; settings: cultures irradiated for 20 s, 254 nm, without MMS
compound,measurement,setting,value
"CNC(=S)NC [Dimethylthiourea, dimethylthiourea, reference compound]",Inhibition % of the melanin in the co-cultures,[1],36%
"O=c1cc(CO)occ1O [Kojic acid, reference compound]",inhibition at 35000 µM,"[1]; Homo sapiens, 504 h, 35 mM in culture medium for 21 days",32%
"C[S+]([O-])CCCCNC(=S)NCCCCS(C)(=O)=O (stereo not shown) [MSBMSBT, 1-(5-methanesulphinylbutyl)-3-(5-methanesulphonylbutyl)-thiourea]",inhibition at 2800 µM,"[1]; Homo sapiens, 504 h",18%
"C[S+]([O-])CCCCNC(=S)NCCCC[S+](C)[O-] (stereo not shown) [bis MSiBT, 1,3-bis-(5-methanesulphinylbutyl)-thiourea]",Inhibition % of the melanin in the co-cultures,[1],7.5%
"CS(=O)(=O)CCCCNC(=S)NCCCCS(C)(=O)=O [bis MSoBT, 1,3-bis-(5-methanesulphonylbutyl) thiourea]",inhibition at 2800 µM,"[1]; Homo sapiens, 504 h",29.6%
same,"necessary concentration for approx. 30% melanin inhibition, times lower than for kojic acid",[1]; relative to kojic acid,25 times
same,inhibitory concentration 50 of the mutagenic effect of MMS,[2]; with S9,20 ppm
same,inhibitory concentration 50 of the mutagenic effect of MMS,[2]; without S9,17 ppm
same,inhibitory concentration 50 of the mutagenic effect induced by UVB,[3],25 ppm
same,melting point,,142 °C
